This is an account of results in US20240124409A1, “GUAIANOLIDE SESQUITERPENE LACTONE DERIVATIVES AND PHARMACEUTICAL USE THEREOF” (NANJING UNIVERSITY OF CHINESE MEDICINE, priority 2021, published 2024).

The target of one assay is T1, NLRP3 inflammasome (Mus musculus, UniProt Q8R4B8).
T1 construct: endogenous in cells; host or cells: primary bone marrow-derived macrophages (BMDMs) from female C57BL/6 mice, differentiated with rmM-CSF
The assay is described as follows: Inhibition of LPS and ATP induced NLRP3 inflammasome activation in BMDMs (IL-1β level). The format is cell-based, C57BL/6 mice. The note with it: read-out: IC50, inhibitory effect on activation of NLRP3 inflammasome. The source says: NLRP3 is an important pattern recognition receptor, that can form the NLRP3 inflammasome through the adaptor ASC and pro-caspase-1. After activation, the NLRP3 inflammasome can mediate the activation of caspase-1, thus promoting the maturation and secretion of IL-1β. In order to determine whether the prepared guaianolide sesquiterpene lactone Compounds 1-8 can inhibit the activation of the NLRP3 inflammasome, we used LPS and ATP to induce the activation of the NLRP3 inflammasome, and observed the effects of Compounds 1-8 on the IL-1β level caused by NLRP3 inflammasome activation.
C57BL/6 mice were sacrificed by cervical dislocation, and then soaked in 75% alcohol for 5-10 min. Subsequently, two hind legs of the mice were cut off with scissors. Next, the meat was removed, and the leg bones were left, which were then washed with PBS for three times. After severing the bone at both ends, a sterile syringe filled with cold serum-free RPMI 1640 medium was used to flush the bone marrow into a 15 mL centrifuge tube. Subsequently, the bone marrow was centrifuged at 1500 rpm for 5 min, and the supernatant was discarded. The residue was resuspended with 1 mL of erythrocyte lysate, blown repeatedly, and then stood for 7 min to lyse erythrocytes. After centrifugation at 1500 rpm for 5 min, the supernatant was discarded. The residue was resuspended with the RPMI 1640 medium containing 100 ng/ml of rmM-CSF, and then transferred to a 6-well culture plate for culture.
The BMDMs were seeded on 6-well cell culture plates and then treated with 100 ng/ml ultrapure LPS for 3 h. […] Subsequently, the cells were stimulated with 5 mM ATP for 45 min. The supernatants were collected into 1.5 mL EP tubes for subsequent detection of IL-1β level.

Assay [1] has as its system mouse acute kidney injury models. Put plainly: Mouse acute kidney injury model (folic acid). It is filed as in vivo, C57BL/6 mice. Particulars: for Scr (creatinine level in serum): in µmol/L (unit assumed); for Col1a1 mRNA expression / Havcr1 mRNA expression / Il1 mRNA expression / Il6 mRNA expression / Ngal mRNA expression / Tgfb1 mRNA expression / Tnf mRNA expression / α-Sma mRNA expression: kidney. Also noted: Havcr1 mRNA expression / Ngal mRNA expression / Tnf mRNA expression / Il1 mRNA expression / Il6 mRNA expression / α-Sma mRNA expression / Col1a1 mRNA expression / Tgfb1 mRNA expression: scale not given here; BUN (urea level in serum): unit not given here. On the procedure:
Acute kidney injury: The mice were randomly divided into 7 groups, one of which was randomly selected as the normal group, and the other 6 groups were the model group, the parent drug 1 (0.4 and 4 μmol/kg), the hydrochloride 22 (4 μmol/kg), and the fumarate 23 (0.4 and 4 μmol/kg) groups, respectively, with 6 mice in each group. In addition to the mice in the normal group, other mice were injected intraperitoneally with folic acid dissolved in 0.9% NaHCO3 solution (250 mg/kg) to establish mouse acute kidney injury models. 1 h before model establishment, the parent drug 1 (0.4 and 4 μmol/kg), the hydrochloride 22 (4 μmol/kg) and the fumarate 23 (0.4 and 4 μmol/kg) were administered intragastrically for 3 consecutive days. The mice in the normal group and model group were administered intragastrically the same volume of the solvent 0.5% CMC-Na.
1 h after the last administration, blood was collected from the venous plexus of fundus oculi, stood at room temperature for 2 h, and centrifuged at 3000 rpm for 20 min. The serum was aspirated, aliquoted, and frozen at −70° C. for subsequent use. After blood collection, the mice were sacrificed by cervical dislocation, and the abdominal cavity was opened. The kidneys were taken out, rinsed twice with pre-cooled PBS after the perirenal fats and capsules were peeled off, and then fixed with 4% paraformaldehyde for 24-48 h, embedded in paraffin and stained with HE. The remaining tissues were frozen at −70° C. for subsequent use.
μL serum was taken from each sample for the detection of creatinine and urea levels. Samples were added in accordance with the instructions of the kit strictly. After incubation at 37° C., the absorbance value was measured in a microplate reader, and the content levels of detection indicators in each group were calculated according to the standard curve.
The extraction of total RNA from animal tissues, cDNA synthesis and PCR amplification are as in above examples.

For assay [2], the system named is mouse acute liver injury model. The assay is described as follows: Mouse acute liver injury model (CCl4). Particulars: for Acta2 mRNA expression / Col1a1 mRNA expression / Tgfb1 mRNA expression: liver; for ALT / AST: serum, 3 days. The format is in vivo, C57BL/6 mice. The procedure: The mice were randomly divided into 8 groups, one of which was randomly selected as the normal group, and the other 7 groups were the model group, the parent drug 1 (0.4 and 4 μmol/kg), the hydrochloride 22 (4 μmol/kg), and the fumarate 23 (0.4 and 4 μmol/kg) groups, respectively, with 6 mice in each group. In addition to the normal group injected with 10 mL olive oil/kg, the other mice were injected intraperitoneally with 0.5 mL CCl4+9.5 mL olive oil/kg weight, i.e., the ratio of CCl4 to olive oil was 1:19. […] The mice in the normal group and model group were administered intragastrically the same volume of the solvent 0.5% CMC-Na.
1 h after the last administration, blood was collected from the venous plexus of fundus oculi, stood at room temperature for 2 h, and centrifuged at 3000 rpm for 20 min. The serum was aspirated, aliquoted, and frozen at −70° C. for subsequent use. After blood collection, the mice were sacrificed by cervical dislocation, and the abdominal cavity was opened. The livers were taken out, and rinsed twice with pre-cooled PBS. The liver left lobe tissues of the mice were cut, and fixed with 4% paraformaldehyde for 24-48 h. The remaining tissues were frozen at −70° C. for subsequent use.
μL of each sample was taken for experiments. The levels of AST and ALT in the serum of mice were detected according to the operation manual. The absorbance value was detected at the wavelength of 510 nm by a microplate reader, and the sample concentration (U/L) was calculated according to the standard curve.
The extraction method of total RNA from tissues, cDNA synthesis and the PCR amplification method are the same as those in Example 4.

The structures appear in SMILES notation.

T1 sequence (Q8R4B8 whole entry): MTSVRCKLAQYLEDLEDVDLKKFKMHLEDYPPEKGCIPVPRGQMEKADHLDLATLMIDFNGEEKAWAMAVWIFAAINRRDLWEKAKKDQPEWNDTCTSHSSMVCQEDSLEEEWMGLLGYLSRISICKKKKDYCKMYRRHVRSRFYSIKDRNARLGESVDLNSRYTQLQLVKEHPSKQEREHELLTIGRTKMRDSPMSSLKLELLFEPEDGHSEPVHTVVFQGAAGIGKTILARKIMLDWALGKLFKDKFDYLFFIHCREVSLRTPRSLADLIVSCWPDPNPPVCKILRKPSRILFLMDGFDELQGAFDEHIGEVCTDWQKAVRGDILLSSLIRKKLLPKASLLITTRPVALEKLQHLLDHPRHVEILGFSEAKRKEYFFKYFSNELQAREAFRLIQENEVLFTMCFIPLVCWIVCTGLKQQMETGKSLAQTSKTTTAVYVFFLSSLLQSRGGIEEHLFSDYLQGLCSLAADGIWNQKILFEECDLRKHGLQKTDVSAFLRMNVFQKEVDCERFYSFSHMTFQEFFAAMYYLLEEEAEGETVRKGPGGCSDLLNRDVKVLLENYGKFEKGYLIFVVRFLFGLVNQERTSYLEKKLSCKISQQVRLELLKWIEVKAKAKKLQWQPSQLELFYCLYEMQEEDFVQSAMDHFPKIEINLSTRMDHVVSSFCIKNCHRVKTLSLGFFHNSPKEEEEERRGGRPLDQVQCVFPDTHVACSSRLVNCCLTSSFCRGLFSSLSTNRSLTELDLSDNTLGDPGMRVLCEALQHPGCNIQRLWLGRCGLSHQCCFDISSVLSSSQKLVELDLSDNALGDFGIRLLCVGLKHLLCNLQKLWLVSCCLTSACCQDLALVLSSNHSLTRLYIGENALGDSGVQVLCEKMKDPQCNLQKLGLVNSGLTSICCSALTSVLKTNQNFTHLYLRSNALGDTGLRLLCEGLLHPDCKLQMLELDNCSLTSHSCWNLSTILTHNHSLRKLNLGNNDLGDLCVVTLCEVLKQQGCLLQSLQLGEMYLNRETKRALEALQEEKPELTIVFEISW

One may read the IC50 as the concentration that inhibits the measured activity by half. On to `C=C1C(=O)O[C@@H]2[C@@H]3[C@]4(CC[C@@]3(C)O)C[C@]4(C)CC[C@@H]12` [Compound 1], for which, at NLRP3 inflammasome, the IC50 is less than 40 nM. Further, in assay [1] (0.4 μmol/kg i.g.), the “BUN (urea level in serum)” value amounted to 31.46 and the “Scr (creatinine level in serum)” value came to 108.48. In addition, in assay [1] (4 μmol/kg i.g.), the “BUN (urea level in serum)” value was 21.33 and the “Scr (creatinine level in serum)” value is on record as 71.95. Also, in assay [1] (0.4 μmol/kg), the “Col1a1 mRNA expression” value came out at 1.64, the “Havcr1 mRNA expression” value was determined as 175.10, the “Il1 mRNA expression” value is listed as 2.62 and the “Il6 mRNA expression” value amounted to 8.02. Moreover, in assay [1] (0.4 μmol/kg), the “Ngal mRNA expression” value was found to be 30.52, the “Tgfb1 mRNA expression” value amounted to 1.96, the “Tnf mRNA expression” value is 2.89 and the “α-Sma mRNA expression” value was 1.82. Further, in assay [1] (4 μmol/kg), the “Col1a1 mRNA expression” value is listed as 1.32, the “Havcr1 mRNA expression” value was 99.99, the “Il1 mRNA expression” value turned out to be 1.72 and the “Il6 mRNA expression” value is given as 3.98. Further, in assay [1] (4 μmol/kg), the “Ngal mRNA expression” value was determined as 20.17, the “Tgfb1 mRNA expression” value was 1.36, the “Tnf mRNA expression” value is on record as 2.76 and the “α-Sma mRNA expression” value stood at 1.42. In assay [2] (0.4 μmol/kg), the “Acta2 mRNA expression” value was 3.78, the “Col1a1 mRNA expression” value amounted to 2.33 and the “Tgfb1 mRNA expression” value is reported as 1.43. Also, in assay [2] (4 μmol/kg), the “Acta2 mRNA expression” value was found to be 2.41, the “Col1a1 mRNA expression” value stood at 1.42 and the “Tgfb1 mRNA expression” value is reported as 1.12. Moreover, in assay [2] (0.4 μmol/kg i.g.), the ALT is 174.83 U/L and the AST is listed as 425.20 U/L. For the same compound, in assay [2] (4 μmol/kg i.g.), the ALT is given as 105.14 U/L and the AST is on record as 239.08 U/L.

Turning to `CN(C)C[C@@H]1C(=O)O[C@H]2[C@H]1CC[C@@]1(C)C[C@]13CC[C@@](C)(O)[C@H]23` [Compound 22], on NLRP3 inflammasome, the IC50 fell in the range of 40 to 80 nM. Moreover, in assay [1] (4 μmol/kg i.g.), the “BUN (urea level in serum)” value turned out to be 16.74 and the “Scr (creatinine level in serum)” value is reported as 64.94. Also, in assay [1] (4 μmol/kg), the “Col1a1 mRNA expression” value worked out at 1.18, the “Havcr1 mRNA expression” value is reported as 62.86, the “Il1 mRNA expression” value is 1.06 and the “Il6 mRNA expression” value was 1.55. In addition, in assay [1] (4 μmol/kg), the “Ngal mRNA expression” value stood at 13.05, the “Tgfb1 mRNA expression” value is 0.98, the “Tnf mRNA expression” value is on record as 2.31 and the “α-Sma mRNA expression” value came out at 1.11. In assay [2] (4 μmol/kg), the “Acta2 mRNA expression” value turned out to be 1.85, the “Col1a1 mRNA expression” value was 1.16 and the “Tgfb1 mRNA expression” value was 0.92. In assay [2] (4 μmol/kg i.g.), this compound displayed an ALT of 85.02 U/L and an AST of 153.34 U/L.

Take `CN(C)C[C@@H]1C(=O)O[C@H]2[C@H]1CC[C@@]1(C)C[C@]13CC[C@@](C)(O)[C@H]23` [Compound 23]: the IC50 at NLRP3 inflammasome was 40 to 80 nM. For the same compound, in assay [1] (0.4 μmol/kg i.g.), the “BUN (urea level in serum)” value came to 30.08 and the “Scr (creatinine level in serum)” value was 90.69. In assay [1] (4 μmol/kg i.g.), the “BUN (urea level in serum)” value is 18.95 and the “Scr (creatinine level in serum)” value was determined as 50.39. Moreover, in assay [1] (0.4 μmol/kg), the “Col1a1 mRNA expression” value amounted to 1.58, the “Havcr1 mRNA expression” value is reported as 170.08, the “Il1 mRNA expression” value turned out to be 2.07 and the “Il6 mRNA expression” value is reported as 6.47. Further, in assay [1] (0.4 μmol/kg), the “Ngal mRNA expression” value came out at 25.75, the “Tgfb1 mRNA expression” value came to 1.64, the “Tnf mRNA expression” value was found to be 2.60 and the “α-Sma mRNA expression” value came out at 1.80. Moreover, in assay [1] (4 μmol/kg), the “Col1a1 mRNA expression” value is 1.20, the “Havcr1 mRNA expression” value came to 83.11, the “Il1 mRNA expression” value was determined as 1.45 and the “Il6 mRNA expression” value is 5.61. In addition, in assay [1] (4 μmol/kg), the “Ngal mRNA expression” value was determined as 13.08, the “Tgfb1 mRNA expression” value was 1.09, the “Tnf mRNA expression” value is 2.42 and the “α-Sma mRNA expression” value was determined as 0.90. For the same compound, in assay [2] (0.4 μmol/kg), the “Acta2 mRNA expression” value came to 2.97, the “Col1a1 mRNA expression” value was found to be 1.83 and the “Tgfb1 mRNA expression” value was determined as 1.08. In assay [2] (4 μmol/kg), the “Acta2 mRNA expression” value is on record as 2.15, the “Col1a1 mRNA expression” value is 1.33 and the “Tgfb1 mRNA expression” value was determined as 0.97. In assay [2] (0.4 μmol/kg i.g.), this compound came in with an ALT of 134.21 U/L and an AST of 387.71 U/L. In assay [2] (4 μmol/kg i.g.), this compound yielded an ALT of 99.46 U/L and an AST of 216.14 U/L.

Turning to `C=C1C(=O)O[C@@H]2[C@H]3C(C)=CC[C@@]34O[C@@]4(C)CC[C@@H]12` [arglabin, reference compound], at NLRP3 inflammasome, the IC50 is less than 40 nM.
